1 compound from US6844328B2, “Polysaccharidic esters of N-derivatives of glutamic acid” (Eurand Pharmaceuticals Ltd., priority 2000, dated 2005) can be followed below.

In the test the test system is dihydrofolate reductase (DHFR). The conditions noted are these: MT 2.2×10^−5 M; 30° C.; absorbance at 340 nm.

SMILES strings stand for the structures.

Procedure: Reagents and test samples were added to 3 ml disposable cuvettes to the required volume of distilled water in the following order: H2O (0.1-0 ml), 1.5 M Na-acetate buffer (1 ml), 1.8 M KCl (1 ml), 3 mM NADPH (0.15 ml), test solution in PBS (0-0.1 ml), dihydrofolate reductase (DHFR) (ca. 0.01 Uμl) (5 μl). All reagents were purchased from Sigma. The DHFR was introduced, mixed and incubated at 30° C. for 2 min. The reaction was initiated by the addition of dihydrofolic acid (3 mM, 0.15 ml), and the decrease in absorbance with the time at 340 nm was followed.
A control reaction, which contained 0.1 ml of PBS as test solution was included.

`CN(Cc1cnc2nc(N)nc(N)c2n1)c1ccc(C(=O)N[C@@H](CCC(=O)O)C(=O)O)cc1` [MT]: the “inhibition of DHFR activity” value was “completely inhibited”.
